Test results: PubChem BioAssay AID2060905 (Molecular Pharmacology Branch, DTP, NCI, 2025)

Test system: 282377-053-R-J1-PDC complex spheroid viability
Assay: Anticancer human tumor 282377-053-R-J1-PDC patient-derived colon adenocarcinoma cell line growth inhibition [RAS]
Conditions: for IC50: curve of first compound; for viability, T/C: stronger effect = lower value
Method in brief: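 Agents were tested in combination matrices in half-log decrements from a top concentration at or near clinical Cmax (10 microM if undetermined). Targets were multi-cell spheroids of tumour lines plus HUVEC and MSC stromal cells.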

[1] = second compound 0.000949 µM, first compound 0.00316 µM
[2] = second compound 0.000949 µM, first compound 0.01 µM
[3] = second compound 0.000949 µM, first compound 0.0316 µM
[4] = second compound 0.000949 µM, first compound 0.1 µM
[5] = second compound 0.000949 µM, first compound 0.316 µM
[6] = second compound 0.000949 µM, first compound 1 µM
[7] = second compound 0.003 µM, first compound 0.00316 µM
[8] = second compound 0.003 µM, first compound 0.01 µM
[9] = second compound 0.003 µM, first compound 0.0316 µM
[10] = second compound 0.003 µM, first compound 0.1 µM
[11] = second compound 0.003 µM, first compound 0.316 µM
[12] = second compound 0.003 µM, first compound 1 µM
[13] = second compound 0.00949 µM, first compound 0.00316 µM
[14] = second compound 0.00949 µM, first compound 0.01 µM
[15] = second compound 0.00949 µM, first compound 0.0316 µM
[16] = second compound 0.00949 µM, first compound 0.1 µM
[17] = second compound 0.00949 µM, first compound 0.316 µM
[18] = second compound 0.00949 µM, first compound 1 µM
[19] = second compound 0.03 µM, first compound 0.00316 µM
[20] = second compound 0.03 µM, first compound 0.01 µM
[21] = second compound 0.03 µM, first compound 0.0316 µM
[22] = second compound 0.03 µM, first compound 0.1 µM
[23] = second compound 0.03 µM, first compound 0.316 µM
[24] = second compound 0.03 µM, first compound 1 µM
[25] = second compound 0.0949 µM, first compound 0.00316 µM
[26] = second compound 0.0949 µM, first compound 0.01 µM
[27] = second compound 0.0949 µM, first compound 0.0316 µM
[28] = second compound 0.0949 µM, first compound 0.1 µM
[29] = second compound 0.0949 µM, first compound 0.316 µM
[30] = second compound 0.0949 µM, first compound 1 µM
[31] = second compound 0.3 µM, first compound 0.00316 µM
[32] = second compound 0.3 µM, first compound 0.01 µM
[33] = second compound 0.3 µM, first compound 0.0316 µM
[34] = second compound 0.3 µM, first compound 0.1 µM
[35] = second compound 0.3 µM, first compound 0.316 µM
[36] = second compound 0.3 µM, first compound 1 µM
[37] = second compound 0.000949 µM, first compound 0.000949 µM
[38] = second compound 0.000949 µM, first compound 0.003 µM
[39] = second compound 0.000949 µM, first compound 0.00949 µM
[40] = second compound 0.000949 µM, first compound 0.03 µM
[41] = second compound 0.000949 µM, first compound 0.0949 µM
[42] = second compound 0.000949 µM, first compound 0.3 µM
[43] = second compound 0.003 µM, first compound 0.000949 µM
[44] = second compound 0.003 µM, first compound 0.003 µM
[45] = second compound 0.003 µM, first compound 0.00949 µM
[46] = second compound 0.003 µM, first compound 0.03 µM
[47] = second compound 0.003 µM, first compound 0.0949 µM
[48] = second compound 0.003 µM, first compound 0.3 µM
[49] = second compound 0.00949 µM, first compound 0.000949 µM
[50] = second compound 0.00949 µM, first compound 0.003 µM
[51] = second compound 0.00949 µM, first compound 0.00949 µM
[52] = second compound 0.00949 µM, first compound 0.03 µM
[53] = second compound 0.00949 µM, first compound 0.0949 µM
[54] = second compound 0.00949 µM, first compound 0.3 µM
[55] = second compound 0.03 µM, first compound 0.000949 µM
[56] = second compound 0.03 µM, first compound 0.003 µM
[57] = second compound 0.03 µM, first compound 0.00949 µM
[58] = second compound 0.03 µM, first compound 0.03 µM
[59] = second compound 0.03 µM, first compound 0.0949 µM
[60] = second compound 0.03 µM, first compound 0.3 µM
[61] = second compound 0.0949 µM, first compound 0.000949 µM
[62] = second compound 0.0949 µM, first compound 0.003 µM
[63] = second compound 0.0949 µM, first compound 0.00949 µM
[64] = second compound 0.0949 µM, first compound 0.03 µM
[65] = second compound 0.0949 µM, first compound 0.0949 µM
[66] = second compound 0.0949 µM, first compound 0.3 µM
[67] = second compound 0.3 µM, first compound 0.000949 µM
[68] = second compound 0.3 µM, first compound 0.003 µM
[69] = second compound 0.3 µM, first compound 0.00949 µM
[70] = second compound 0.3 µM, first compound 0.03 µM
[71] = second compound 0.3 µM, first compound 0.0949 µM
[72] = second compound 0.3 µM, first compound 0.3 µM
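Also: spheroids exposed to agents for seven days before readout.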
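For viability, T/C in this document: luminescence viability as percent of DMSO vehicle control wells.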

C=CC(=O)N1CCN(c2nc(OCC3CCCN3C)nc3c(F)c(-c4nc(N)cc(C)c4C(F)(F)F)c(Cl)cc23)C(C)C1 (stereo not drawn) + CCn1c(-c2cc(N3CCN(C)CC3)cnc2C(C)OC)c2c3cc(ccc31)-c1csc(n1)CC(NC(=O)C1CC1C)C(=O)N1CCCC(N1)C(=O)OCC(C)(C)C2
IC50 (second compound 0.000949 µM): > 1000 nM | IC50 (second compound 0.003 µM): > 1000 nM | IC50 (second compound 0.00949 µM): > 1000 nM | IC50 (second compound 0.03 µM): > 1000 nM | IC50 (second compound 0.0949 µM): > 1000 nM | IC50 (second compound 0.3 µM): > 1000 nM | viability, T/C [1]: 110% | viability, T/C [2]: 101% | viability, T/C [3]: 112% | viability, T/C [4]: 102% | viability, T/C [5]: 129% | viability, T/C [6]: 107% | viability, T/C [7]: 108% | viability, T/C [8]: 120% | viability, T/C [9]: 98.4% | viability, T/C [10]: 115% | viability, T/C [11]: 73.2% | viability, T/C [12]: 143% | viability, T/C [13]: 134% | viability, T/C [14]: 97.6% | viability, T/C [15]: 115% | viability, T/C [16]: 89.5% | viability, T/C [17]: 108% | viability, T/C [18]: 110% | viability, T/C [19]: 120% | viability, T/C [20]: 85.6% | viability, T/C [21]: 88.1% | viability, T/C [22]: 96.6% | viability, T/C [23]: 93.6% | viability, T/C [24]: 107% | viability, T/C [25]: 124% | viability, T/C [26]: 113% | viability, T/C [27]: 106% | viability, T/C [28]: 119% | viability, T/C [29]: 91.8% | viability, T/C [30]: 133% | viability, T/C [31]: 113% | viability, T/C [32]: 93.7% | viability, T/C [33]: 134% | viability, T/C [34]: 120% | viability, T/C [35]: 104% | viability, T/C [36]: 121%

CC1(C)CCC(Nc2ncc(C(F)(F)F)c(-c3c[nH]c4c(P(C)(C)=O)c(C#N)ccc34)n2)CN1 (stereo not drawn) + CCn1c(-c2cc(N3CCN(C)CC3)cnc2C(C)OC)c2c3cc(ccc31)-c1csc(n1)CC(NC(=O)C1CC1C)C(=O)N1CCCC(N1)C(=O)OCC(C)(C)C2
IC50 (second compound 0.000949 µM): > 300 nM | IC50 (second compound 0.003 µM): > 300 nM | IC50 (second compound 0.00949 µM): > 300 nM | IC50 (second compound 0.03 µM): > 300 nM | IC50 (second compound 0.0949 µM): > 300 nM | IC50 (second compound 0.3 µM): > 300 nM | viability, T/C [37]: 104% | viability, T/C [38]: 123% | viability, T/C [39]: 109% | viability, T/C [40]: 104% | viability, T/C [41]: 97.8% | viability, T/C [42]: 94.8% | viability, T/C [43]: 98.2% | viability, T/C [44]: 135% | viability, T/C [45]: 129% | viability, T/C [46]: 99.6% | viability, T/C [47]: 90.2% | viability, T/C [48]: 94.9% | viability, T/C [49]: 116% | viability, T/C [50]: 96.5% | viability, T/C [51]: 126% | viability, T/C [52]: 91.1% | viability, T/C [53]: 92% | viability, T/C [54]: 96.3% | viability, T/C [55]: 109% | viability, T/C [56]: 104% | viability, T/C [57]: 110% | viability, T/C [58]: 101% | viability, T/C [59]: 96.9% | viability, T/C [60]: 84.3% | viability, T/C [61]: 107% | viability, T/C [62]: 118% | viability, T/C [63]: 124% | viability, T/C [64]: 110% | viability, T/C [65]: 119% | viability, T/C [66]: 76.7% | viability, T/C [67]: 136% | viability, T/C [68]: 144% | viability, T/C [69]: 145% | viability, T/C [70]: 113% | viability, T/C [71]: 108% | viability, T/C [72]: 88.2%

CCc1c2c(nc3ccc(O)cc13)-c1cc3c(c(=O)n1C2)COC(=O)[C@]3(O)CC + CCn1c(-c2cc(N3CCN(C)CC3)cnc2C(C)OC)c2c3cc(ccc31)-c1csc(n1)CC(NC(=O)C1CC1C)C(=O)N1CCCC(N1)C(=O)OCC(C)(C)C2
IC50 (second compound 0.000949 µM): > 300 nM | IC50 (second compound 0.003 µM): > 300 nM | IC50 (second compound 0.00949 µM): > 300 nM | IC50 (second compound 0.03 µM): > 300 nM | IC50 (second compound 0.0949 µM): > 300 nM | IC50 (second compound 0.3 µM): > 300 nM | viability, T/C [37]: 130% | viability, T/C [38]: 112% | viability, T/C [39]: 153% | viability, T/C [40]: 124% | viability, T/C [41]: 86.5% | viability, T/C [42]: 81% | viability, T/C [43]: 109% | viability, T/C [44]: 114% | viability, T/C [45]: 151% | viability, T/C [46]: 107% | viability, T/C [47]: 119% | viability, T/C [48]: 66.2% | viability, T/C [49]: 107% | viability, T/C [50]: 112% | viability, T/C [51]: 136% | viability, T/C [52]: 105% | viability, T/C [53]: 112% | viability, T/C [54]: 77.2% | viability, T/C [55]: 116% | viability, T/C [56]: 102% | viability, T/C [57]: 139% | viability, T/C [58]: 122% | viability, T/C [59]: 118% | viability, T/C [60]: 65.4% | viability, T/C [61]: 115% | viability, T/C [62]: 122% | viability, T/C [63]: 162% | viability, T/C [64]: 131% | viability, T/C [65]: 116% | viability, T/C [66]: 69.4% | viability, T/C [67]: 131% | viability, T/C [68]: 131% | viability, T/C [69]: 161% | viability, T/C [70]: 104% | viability, T/C [71]: 109% | viability, T/C [72]: 77.9%

C=CC(=O)Nc1cc(Nc2nccc(-c3cn(C)c4ccccc34)n2)c(OC)cc1N(C)CCN(C)C + CCn1c(-c2cccnc2C(C)OC)c2c3cc(ccc31)N1CCOC(CC(NC(=O)C(C(C)C)N(C)C(=O)C3(F)CCN(C(=O)C#CC(C)(C)N(C)C)CC3)C(=O)N3CCCC(N3)C(=O)OCC(C)(C)C2)C1
IC50 (second compound 0.000949 µM): > 1000 nM | IC50 (second compound 0.003 µM): > 1000 nM | IC50 (second compound 0.00949 µM): > 1000 nM | IC50 (second compound 0.03 µM): > 1000 nM | IC50 (second compound 0.0949 µM): > 1000 nM | IC50 (second compound 0.3 µM): > 1000 nM | viability, T/C [1]: 99% | viability, T/C [2]: 126% | viability, T/C [3]: 127% | viability, T/C [4]: 92% | viability, T/C [5]: 86% | viability, T/C [6]: 123% | viability, T/C [7]: 109% | viability, T/C [8]: 177% | viability, T/C [9]: 108% | viability, T/C [10]: 81% | viability, T/C [11]: 92.6% | viability, T/C [12]: 88% | viability, T/C [13]: 88% | viability, T/C [14]: 188% | viability, T/C [15]: 98% | viability, T/C [16]: 84.8% | viability, T/C [17]: 91.5% | viability, T/C [18]: 119% | viability, T/C [19]: 102% | viability, T/C [20]: 140% | viability, T/C [21]: 113% | viability, T/C [22]: 114% | viability, T/C [23]: 86.9% | viability, T/C [24]: 97.4% | viability, T/C [25]: 95.8% | viability, T/C [26]: 153% | viability, T/C [27]: 93.9% | viability, T/C [28]: 98.5% | viability, T/C [29]: 87.1% | viability, T/C [30]: 124% | viability, T/C [31]: 85.7% | viability, T/C [32]: 134% | viability, T/C [33]: 99.5% | viability, T/C [34]: 102% | viability, T/C [35]: 97.2% | viability, T/C [36]: 121%
